{"source": "patent US9457010B2", "about": "“Compositions for use in treating or preventing metabolic stress-induced lung injury and methods for increasing physical capacity of mammalian livestock” (Nutri-fit GmbH & Co. KG, priority 2009, dated 2016)", "origin": "cited, not measured here", "system": "pulmonary function", "conditions": "3 weeks isocaloric diet; endotoxin challenge"}
{"smiles": "CCCCC/C=C\\C/C=C\\CCCCCCCC(=O)O", "note": "[linoleate]", "values": [{"measurement": "histological evidence in lung", "result": "vascular congestion, intra-alveolar edema and alveolar septa thickening"}]}
